Our source for the IC50 values is patent publication US12012390B2, “Flavone compounds for the treatment and prophylaxis of hepatitis B virus disease” (priority 2018, dated 2024).

In this test the test system is HBeAg level (surrogate marker for cccDNA) in HepDES19 cells. The experiment in a line: Engineered HepDES19 primary screen assay (HBeAg as surrogate marker for cccDNA). In kind it is cell-based, HBV. The source says: The assay was employed to screen for novel cccDNA inhibitors. HepDES19 is a cccDNA-producing cell line. In this cell line, HBeAg in the cell culture supernatant as surrogate marker, as HBeAg production depends on cccDNA level and activity. HepDES19 is an engineered cell line which contains a 1.1 unit length HBV genome, and pgRNA transcription from the transgene is controlled by Tetracycline (Tet). In the absence of Tet, pgRNA transcription will be induced, but HBV e antigen (HBeAg) could not be produced from this pgRNA due to very short leader sequence before the HBeAg start codon and the start codon is disrupted. Only after cccDNA is formed, the missing leader sequence and start codon mutation would be restored from the 3′-terminal redundancy of pgRNA, and then HBeAg could be synthesized. Therefore, HBeAg could be used as a surrogate marker for cccDNA (Zhou, T. et al., Antiviral Res. (2006), 72(2), 116-124; Guo, H. et al., J. Virol. (2007), 81(22), 12472-12484).
HepDES19 cells were seeded at 2×10^6 cells per T150 flask and cultured with the culture medium (Dulbecco's Modified Eagle Medium: Nutrient Mixture F-12 [DMEM-F12, Gibco Cat. 11320-82], 10% Fetal Bovine Serum [FBS, Clontech Cat. 631101], 0.1 mM Non-Essential Amino Acids Solution [NEAA, Gibco Cat. 11140-050], 50 μg/mL Penicillin-Streptomycin [PS, Invitrogen Cat. 15140-163], 500 μg/mL Geneticin [G418, Invitrogen Cat. 10131-027]) containing 3 μg/mL Tet (Sigma, Cat. 87128) for 5 days. Cells were then seeded at 4×10^6 cells per T150 in the same culture medium as described above in the absence of Tet for 8 days. Cells were then harvested and frozen at density of 2×10^6 cells per mL. For compound testing, the frozen cells were thawed and seeded into 96-well plates at a density of 6×10^4 cells per well. At 24 hrs after seeding, half log serial dilutions of compounds made with Dimethyl sulfoxide (DMSO, Sigma, Cat. D2650) were further diluted with the same culture medium as described above before they were added to the cells to reach desired final compound concentrations and 1% DMSO concentration. Plates were then incubated at 37° C. for another 5 days before measurement of HBeAg level and cell viability. Intracellular HBeAg level were measured with enzyme-linked immunosorbent assay (ELISA) kit (Shanghai Kehua Diagnostic Medical Products Co., Ltd). Cell viability was assessed using Cell Counting Kit-8 (Donjindo, Cat. CK04-20). IC50 values were derived from the dose-response curve using 4 parameter logistic curve fit method.
The compounds of the present invention were tested for their capacity to inhibit extracellular HBeAg level as described herein.

[1] abbreviates: Hepatitis B virus, HepDES19, 120 h, read-out: IC50 (HBeAg) in HepDES19 primary screen assay, HepDES19 cells, 5 days incubation with compound, HBeAg by ELISA.
[2] abbreviates: read-out: IC50 (HBeAg) in HepDES19 primary screen assay, HepDES19 cells, 5 days incubation with compound, HBeAg by ELISA.

Where two headings read alike, the source gives them in different places.

The IC50 is the concentration needed to halve the response being measured.

As to `O=C(O)C1CC(OCCOc2ccc(-c3cc(=O)c4cc(N5CCCC5=O)cc(Cl)c4o3)cc2)C1` (stereo not drawn) [Example 68, 3-[2-[4-[8-chloro-4-oxo-6-(2-oxopyrrolidin-1-yl)chromen-2-yl]phenoxy]ethoxy]cyclobutanecarboxylic acid], the IC50 under setting [1] amounted to 10.1 µM.

As for `NC(=O)COCCOc1ccc(-c2cc(=O)c3cccc(Cl)c3o2)cc1` [Example 61, 2-[2-[4-(8-chloro-4-oxo-chromen-2-yl)phenoxy]ethoxy]acetamide], under setting [1], the concentration for half-maximal inhibition (IC50) was found to be 0.144 µM.

For `COC(=O)[C@H]1C[C@@H](OCCOc2ccc(-c3cc(=O)c4cccc(Cl)c4o3)nn2)C1` [Example 41, Cis-methyl 3-[2-[6-(8-chloro-4-oxo-chromen-2-yl)pyridazin-3-yl]oxyethoxy]cyclobutanecarboxylate], the IC50 under setting [1] came to 12.8 µM.

Take `O=c1cc(-c2ccc(OCCO[C@H]3CC[C@@H](C(=O)O)CC3)cc2)oc2c(Cl)cccc12` (single isomer, unassigned) [Example 7-B, 4-[2-[4-(8-chloro-4-oxo-chromen-2-yl)phenoxy]ethoxy]cyclohexanecarboxylic acid]: the half-maximal inhibitory concentration (IC50) under setting [2] stood at 19.7 µM.

In the case of `O=C(O)C1CC(OCCOc2ccc(-c3cc(=O)c4ccc(C5CC5)c(Cl)c4o3)cc2)C1` (stereo not drawn) [Example 70, 3-[2-[4-(8-chloro-7-cyclopropyl-4-oxo-chromen-2-yl)phenoxy]ethoxy]cyclobutanecarboxylic acid], the IC50 under setting [1] was 17.2 µM.

For `COc1c(-c2ccc(OCCO[C@H]3C[C@@H](C(=O)O)C3)cc2)oc2c(Cl)cccc2c1=O` [Example 56, Cis-3-[2-[4-(8-chloro-3-methoxy-4-oxo-chromen-2-yl)phenoxy]ethoxy]cyclobutanecarboxylic acid], the half-maximal inhibitory concentration (IC50) under setting [1] was 29.6 µM.

`O=C(O)C1CC(OCCOc2ccc(-c3cc(=O)c4ccc(C5CC5)c(Cl)c4o3)cc2)C1` (single isomer, unassigned) [Example 70-A, 3-[2-[4-(8-chloro-7-cyclopropyl-4-oxo-chromen-2-yl)phenoxy]ethoxy]cyclobutanecarboxylic acid]: under setting [2], the IC50 stood at 19.8 µM.

With `O=C(O)COCCOc1ccc(-c2oc3c(Cl)cccc3c(=O)c2O)cc1` [Example 59, 2-[2-[4-(8-chloro-3-hydroxy-4-oxo-chromen-2-yl)phenoxy]ethoxy]acetic acid], the IC50 under setting [1] is 20.2 µM.

In the case of `O=C(O)COCCOc1ccc(-c2cc(=O)c3cccc(Cl)c3o2)cc1` [Example 9, 2-[2-[4-(8-chloro-4-oxo-chromen-2-yl)phenoxy]ethoxy]acetic acid], under setting [1], the half-maximal inhibitory concentration (IC50) turned out to be 2.46 µM.

As to `O=C(O)C1CC(OCCOc2ccc(-c3oc4c(Cl)cccc4c(=O)c3OCc3ccccc3)cc2)C1` (stereo not drawn) [Example 65, 3-[2-[4-(3-benzyloxy-8-chloro-4-oxo-chromen-2-yl)phenoxy]ethoxy]cyclobutanecarboxylic acid], the half-maximal inhibitory concentration (IC50) under setting [1] is 6.5 µM.

Turning to `O=C(O)C1CC(OCCOc2ccc(-c3cc(=O)c4cc(F)cc(Cl)c4o3)cc2)C1` (stereo not drawn) [Example 20, 3-[2-[4-(8-chloro-6-fluoro-4-oxo-chromen-2-yl)phenoxy]ethoxy]cyclobutanecarboxylic acid], under setting [1], the half-maximal inhibitory concentration (IC50) came out at 0.7 µM.

As for `COC(=O)C1CC(OCCOc2ccc(-c3oc4c(Cl)cc(F)cc4c(=O)c3OC(F)(F)F)cc2)C1` (single isomer, unassigned) [Example 62-B, methyl 3-[2-[4-[8-chloro-6-fluoro-4-oxo-3-(trifluoromethoxy)chromen-2-yl]phenoxy]ethoxy]cyclobutanecarboxylate], the 50% inhibitory concentration (IC50) under setting [2] amounted to 1.32 µM.

Turning to `CC(C)c1cc(-c2cc(=O)c3cccc(Cl)c3o2)ccc1OCCOC1CC(C(=O)O)C1` (stereo not drawn) [Example 48, 3-[2-[4-(8-chloro-4-oxo-chromen-2-yl)-2-isopropyl-phenoxy]ethoxy]cyclobutanecarboxylic acid], under setting [1], the IC50 amounted to 7.68 µM.

For `CCOC(=O)COCCOc1ccc(-c2cc(=O)c3ccc(Br)c(Cl)c3o2)cc1` [Example 71, ethyl 2-[2-[4-(7-bromo-8-chloro-4-oxo-chromen-2-yl)phenoxy]ethoxy]acetate], the 50% inhibitory concentration (IC50) under setting [1] was 9.3 µM.

For the molecule `O=c1cc(-c2ccc(OCCO[C@H]3CC[C@@H](C(=O)O)CC3)cc2)oc2c(Cl)cccc12` (single isomer, unassigned) [Example 7-A, 4-[2-[4-(8-chloro-4-oxo-chromen-2-yl)phenoxy]ethoxy]cyclohexanecarboxylic acid], under setting [1], the IC50 was determined as 15.4 µM.

`O=C(O)C1CC(OCCOc2ccc(-c3oc4c(Cl)cccc4c(=O)c3Br)cc2)C1` (stereo not drawn) [Example 64, 3-[2-[4-(3-bromo-8-chloro-4-oxo-chromen-2-yl)phenoxy]ethoxy]cyclobutanecarboxylic acid]: the half-inhibitory concentration (IC50) under setting [1] was determined as 5.5 µM.

Consider `O=C(O)C1CC(OCCOc2ccc(-c3cc(=O)c4cccc(Cl)c4o3)c(N3CCOCC3)c2)C1` (stereo not drawn) [Example 60, 3-[2-[4-(8-chloro-4-oxo-chromen-2-yl)-3-morpholino-phenoxy]ethoxy]cyclobutanecarboxylic acid], for which the IC50 under setting [1] was 4.84 µM.

Turning to `Cc1cccc2c(=O)cc(-c3ccc(OCCO[C@H]4C[C@@H](C(=O)O)C4)cc3)oc12` [Example 35, Cis-3-[2-[4-(8-methyl-4-oxo-chromen-2-yl)phenoxy]ethoxy]cyclobutanecarboxylic acid], the half-inhibitory concentration (IC50) under setting [1] was 13.9 µM.

Regarding `O=C(O)COCCOc1ccc(-c2cc(=O)c3c(F)ccc(Cl)c3o2)cc1` [Example 37, 2-[2-[4-(8-chloro-5-fluoro-4-oxo-chromen-2-yl)phenoxy]ethoxy]acetic acid], under setting [1], the IC50 came out at 8.97 µM.

As for `CC(C)Oc1ccc(Cl)c2oc(-c3ccc(OCCO[C@H]4C[C@@H](C(=O)O)C4)cc3)cc(=O)c12` [Example 27, Cis-3-[2-[4-(8-chloro-5-isopropoxy-4-oxo-chromen-2-yl)phenoxy]ethoxy]cyclobutanecarboxylic acid], the 50% inhibitory concentration (IC50) under setting [1] is 7.68 µM.

For the molecule `N#Cc1cc(Cl)c2oc(-c3ccc(OCCOC4CC(C(=O)O)C4)cc3)cc(=O)c2c1` (stereo not drawn) [Example 22, 3-[2-[4-(8-chloro-6-cyano-4-oxo-chromen-2-yl)phenoxy]ethoxy]cyclobutanecarboxylic acid], the IC50 under setting [1] turned out to be 13 µM.

With `O=C(O)[C@H]1C[C@H]1OCCOc1ccc(-c2cc(=O)c3cccc(Cl)c3o2)cc1` (single isomer, unassigned) [Example 5-A, 2-[2-[4-(8-chloro-4-oxo-chromen-2-yl)phenoxy]ethoxy]cyclopropanecarboxylic acid], under setting [2], the half-inhibitory concentration (IC50) was 1.36 µM.

Turning to `Cc1ccc(Cl)c2oc(-c3ccc(OCCO[C@H]4C[C@@H](C(=O)O)C4)cc3)cc(=O)c12` [Example 31, Cis-3-[2-[4-(8-chloro-5-methyl-4-oxo-chromen-2-yl)phenoxy]ethoxy]cyclobutanecarboxylic acid], the IC50 under setting [1] is 0.78 µM.

Consider `O=c1cc(-c2ccc(OCCO[C@H]3C[C@@H](C(=O)O)C3)cc2)oc2c(C3CC3)cccc12` [Example 34, Cis-3-[2-[4-(8-cyclopropyl-4-oxo-chromen-2-yl)phenoxy]ethoxy]cyclobutanecarboxylic acid], for which the IC50 under setting [1] turned out to be 16 µM.
